Patent US9085463B2, “Water-soluble functionalized fullerenes” (Marelle, LLC, priority 2011, dated 2015)

Legend:
[1] = DPPH radical-scavenging method (anti-oxidant potential); format: biochemical; conditions: for RD(.05 mg): amount of compound needed to deplete .05 mg of DPPH: calculated from slope; for Slope (anti-oxidant potential): mg DPPH remaining vs mg compound, linear regression, absorbance at 517 nm
Text: The ability of a component to serve as an anti-oxidant is readily tested by a variety of methods known in the art. These analytical methods measure the radical-scavenging activity of anti-oxidants against free radicals, such as the 1,1-diphenyl-2-picrylhydrazyl (DPPH) radical. […] This absorbance disappears as the DPPH is consumed upon reduction by an antiradical compound. The disappearance of this so-called absorbance band can be followed by spectroscopic methods allowing quantitative measurements of the compound's anti-oxidant ability.
Stock solutions of 100 micromolar DPPH were prepared using 3.9 milligrams (mg) of DPPH dissolved in 100 milliliters (ml) of solution using spectroscopic grade methanol (MeOH). 3.5 ml of the DPPH solution was combined with 0.5 ml of test solutions of various concentrations of the anti-oxidant compounds. The commercial anti-oxidants, which are not water soluble, were dissolved in MeOH while their functionalized fullerene derivatives were dissolved in distilled water. The test mixture was immediately placed in a spectrometer which measured the absorbance of the mixture at 517 nm at various intervals over periods of 6 to 8 hours. Typically 4 or more samples of the anti-oxidants at various concentrations were tested. The concentrations, expressed in milligrams per milliliter (mg/ml), were selected so that some of the samples would consume more than 50% of the DPPH and others would not.
The percent of DPPH remaining at a given time interval was calculated using the following equation:
[formula] ACt is the absorbance value to the compound/DPPH solution at time t, ADPPHi is the initial value of the DPPH control blank at time t=0, and ADPPHt′ is the absorbance value of the control blank DPPH at time t=t′. The term (ADPPHt−ADPPHt′) in the above equation is the absorbance correction factor for DPPH radical decay as measured in the control blank.
The % DPPHram was recorded for each of the four concentrations at two different reaction times (30 minutes and 300 minutes). The % DPPHram was converted to milligrams (mg) of DPPH remaining and plotted as a function of milligrams (mg) of compound for each of the two reaction times. Linear regressions were calculated for each of the data sets according to the following formula: CDPPH=mt·Cc+CDPPHo
CDPPH is the mass of DPPH remaining at time t=30 minutes and time t=300 minutes, Co is the mass of the compound in the cuvette, CDPPHo is the initial concentration of the DPPH in the cuvette, and mt is the slope determined by the linear regression. The slope was used as a parameter to estimate the anti-oxidant potential of the compound. […] FIGS. 30-34 illustrate the slope (anti-oxidant potential) of commercial anti-oxidants and their functionalized fullerenol derivatives (indicated with FF in the legends).
The slope for each compound was tabulated and the amount (mg) of compound needed to deplete 0.05 mg of DPPH was calculated (see Table 1).

[2] = UV absorbing ability (UV/Vis absorbance of solutions); format: physicochemical; conditions: 0.5 mg/ml, avobenzone in acetone, functionalized fullerene in distilled water
Procedure: The ability of a component to absorb UV light is readily tested using spectroscopic instruments, such as a UV/Vis spectrophotometer.
5.0 milligrams (mg) of avobenzone, a UV light absorbing substance widely used in sunscreens, was dissolved in 10 milliliters (ml) of reagent grade acetone. […] UV absorbance (A) of the resulting solutions was measured at 290 nm, 320 nm, and 400 nm.

Compound	RD(.05 mg): amount of compound needed to deplete .05 mg of DPPH ([1]; 30 minutes reaction time) [mg]	Slope (anti-oxidant potential) ([1]; 30 minutes reaction time) [mg/mg]	RD(.05 mg): amount of compound needed to deplete .05 mg of DPPH ([1]; 300 minutes reaction time) [mg]	Slope (anti-oxidant potential) ([1]; 300 minutes reaction time) [mg/mg]	Absorbance (A) 290 nm ([2]; 290 nm)	Absorbance (A) 320 nm ([2]; 320 nm)	Absorbance (A) 400 nm ([2]; 400 nm)
CCCCC/C=C\C/C=C\C/C=C\C/C=C\CCCC(=O)O [Arachidonic Acid, arachidonic acid, reference compound]	250.00	-0.0002	45.45	-0.0011	–	–	–
COc1ccc(C(=O)CC(=O)c2ccc(C(C)(C)C)cc2)cc1 [Avobenzone, avobenzone]	–	–	–	–	0.297	0.521	0.376
COC1=C(OC)C(=O)C(C/C=C(\C)CC/C=C(\C)CC/C=C(\C)CC/C=C(\C)CC/C=C(\C)CC/C=C(\C)CC/C=C(\C)CC/C=C(\C)CC/C=C(\C)CCC=C(C)C)=C(C)C1=O [Coenzyme Q10, coenzyme Q10, reference compound]	125.00	-0.0004	23.81	-0.0021	–	–	–
CCCCC/C=C\C/C=C\CCCCCCCC(=O)O [Linoleic Acid, linoleic acid, reference compound]	6250.00	-0.000008	100.00	-0.0005	–	–	–
CC/C=C\C/C=C\C/C=C\CCCCCCCC(=O)O [Linolenic Acid, α-linolenic acid, reference compound]	250.00	-0.0002	45.45	-0.0011	–	–	–
